From patent US12285399B2, “Composition comprising bornyl acetate or pharmaceutically acceptable salt thereof as active ingredient for prevention or treatment of stress-related disorder” (UNIVERSITY-INDUSTRY COOPERATION GROUP OF KYUNG HEE …, priority 2019, dated 2025) come the findings set out here.

Assay [1] in a line: Body weight change in chronic restrained stress (CRS) depression model. The following applies: CRS+BA group, oral, 14 days of restrained stress, 14th day. In kind it is in vivo, C57BL/6NTac mice. How it is done:
In order to confirm the antidepressant efficacy of bornyl acetate on the animal model of stress depression, an animal model of depression induced by chronic restrained stress (CRS) was prepared. Specifically, the animal model, 8-week-old male C57BL/6NTac mice after birth (Narabiotechnology, Korea; weight 22-24 g) had been stabilized for 1 week. A 50 ml conical tube (SPL Life sciences, Pocheon, Korea) was punched to make a hole, thereby making a restraint frame. The mice were put in the frame and restrained for 2 hours every day for 14 days. After restraint, the mice were allowed to freely ingest water and food in the home cage. Bornyl acetate (25, 50 and 100 mg/kg) of the present invention was dissolved in 0.1 M PBS, and the mixture was orally administered 1 hour before inducing restrained stress every day. Bornyl acetate was administered in a dose per individual of 100 μl. Specifically, the mice were weighed during or after applying restrained stress for 2 hours per day for 14 days, followed by a tail suspension test and forced swimming test were performed, and serum stress hormone (corticosterone) levels were measured (FIGS. 1A and 1B).

Assay [2] relates to c-Fos protein. In words: Western blot of c-Fos protein in brain (hippocampus and amygdala) of CRS model. In kind it is in vivo, C57BL/6NTac mice. The following applies: CRS+BA group. How it is done: In order to confirm the antidepressant efficacy of bornyl acetate on the animal model of stress depression, an animal model of depression induced by chronic restrained stress (CRS) was prepared. Specifically, the animal model, 8-week-old male C57BL/6NTac mice after birth (Narabiotechnology, Korea; weight 22-24 g) had been stabilized for 1 week. A 50 ml conical tube (SPL Life sciences, Pocheon, Korea) was punched to make a hole, thereby making a restraint frame. The mice were put in the frame and restrained for 2 hours every day for 14 days. After restraint, the mice were allowed to freely ingest water and food in the home cage. The hippocampus and amygdala of the brain were excised. They were added to 200 μl of a protein lysis buffer (10 mM Tris, 0.5 mM EDTA, 0.25 M sucrose), and proteins were isolated using a grinder. The isolated protein was quantified by the Bradford method (Bio-rad, USA) using bovine serum albumin (BSA, Sigma, USA), and then 25 μg of the protein was separated by 10% sodium dodecyl sulfate-polyacrylamide gel electrophoresis (SDS-PAGE) and transferred to polyvinylidene difluoride (PVDF) membrane (Gendepot, UK). PVDF membranes were blocked in 5% skimmed milk (BD, USA) for 1 hour. […] Identification and quantitative analysis of proteins were analyzed using an imaging device ChemiDoc XRS+ (Bio-Rad). […]
On the technique in general: A western blot detects proteins with antibodies after separation by electrophoresis.

Regarding `CC(=O)OC1CC2CCC1(C)C2(C)C` (stereo not drawn) [BA, bornyl acetate], in assay [1], the body weight change result is reported as “no significant increase or decrease”. Further, the “protein expression of c-Fos (CRS-induced increase)” value in assay [2] (amygdala) and in assay [2] (hippocampus) was “significantly inhibited” throughout.
